Assay results published in ChEMBL document CHEMBL4130440, “Isolation, Synthesis, and Biological Activity of Chlorinated Alkylresorcinols from Dictyostelium Cellular Slime Molds” (J Nat Prod, 2017).

Key:
Jurkat [1] = test: Immunosuppressive activity in human Jurkat cells assessed as inhibition of concanavalin A-induced IL-2 production at 20 uM pretreated for 30 mins followed by concanavalin A stimulation after 12 hrs by immunoassay relative to control; format: functional
Jurkat [2] = test: Cytotoxicity against concanavalin A-induced human Jurkat cells assessed as reduction in cell viability up to 20 uM pretreated for 30 mins followed by concanavalin A stimulation after 12 hrs by MTT assay; format: cell-based
Jurkat [3] = test: Immunosuppressive activity in human Jurkat cells assessed as inhibition of concanavalin A-induced IL-2 production pretreated for 30 mins followed by concanavalin A stimulation after 12 hrs by immunoassay; format: functional, cell-based

| Structure (SMILES) | inhibition at 20 µM (Jurkat [1]) [%] | other results |
| --- | --- | --- |
| CCCCCC/C=C\CCCCCc1cc(O)c(Cl)c(O)c1 | < 50 | – |
| CCCCCC/C=C\CC/C=C\CCCc1cc(O)c(Cl)c(O)c1 | < 50 | – |
| CCCCCC[C@H]1C[C@H]1CCCCCCCc1cc(O)c(Cl)c(O)c1 | < 50 | – |
| CCCCCC/C=C\CCCCCCCc1cc(O)c(Cl)c(O)c1 | < 50 | – |
| CCCCCCCCCCCCCCc1cc(O)c(Cl)c(O)c1 | < 50 | – |
| CCCCCC[C@H]1C[C@H]1CCCCCc1cc(O)c(Cl)c(O)c1 | < 50 | – |
| CCCCCCCCCCCCCCCc1cc(O)c(Cl)c(O)c1 | < 50 | – |
| CCCCCCCCCCCCCc1cc(O)c(Cl)c(O)c1 | < 50 | Activity (Jurkat [2]): Non-Toxic; IC50 (Jurkat [3]): 16 µM; inhibition (Jurkat [3]): Dose-dependent effect |
